For data set [1], the system named is neural cells derived from human iPSK3 cells. Description: Aβ1-42 oligomer-induced response in presence of GSK-3β inhibitor CHIR99021 (MTT, ROS, caspase). The following applies: CH 10 μM with 1 μM Aβ1-42 oligomers, day 46 cells. Type of data set: cell-based. The text has this: The cells were subsequently characterized by MTT, ROS, and poly caspase assays (Yan, et al., Cryopreservation of embryonic stem cell-derived multicellular neural aggregates labeled with micron-sized particles of iron oxide for magnetic resonance imaging, Biotechnol Prog, 31 (2015) 510-521; Sart, et al., The microenvironment of embryoid bodies modulated the commitment to neural lineage post-cryopreservation, Tissue Eng Part C: Methods., 21 (2015) 356-366). To evaluate the influence of glycogen synthase kinase (GSK)-3p inhibitor, CHIR99021 (1 or 10 μM) was added to the cultures treated with 1 μM Aβ1-42 oligomers for three days and characterized.
(§1) Briefly, the replated neural cells were incubated with 5 mg/mL 3-(4,5-Dimethylthiazol-2-yl)-2,5-diphenyltetrazolium bromide (MTT, Sigma) solution. The absorbance was measured at 500 nm using a microplate reader (Biorad, Richmond, Calif.). Image-iT™ Live Green Reactive Oxygen Species Detection kit (Molecular Probes) was used to detect the intracellular ROS. Briefly, neural cells were seeded at 1×10^5/mL in 96-well plates (100 μL). After 3 days, the cells were rinsed with Hank's balanced salt solution and incubated with 25 μM carboxy-H2DCFDA for 30 min at 37° C. The samples were washed and measured under a fluorescence microplate reader using 488 nm excitation wavelength and 530 nm for emission (Bio-Tek, FLx800, Winoosk, Vt.). Image-iT™ Live Green Poly Caspase Detection kit (Molecular Probes) was used to detect the expression of caspases. The replated cells were incubated for one hour with the fluorescent inhibitor of caspases reagent and analyzed by a fluorescence microplate reader.

The test system of a further data set is hiPSK3-derived EBs. In words: Neural patterning, immunocytochemistry marker quantification. Type of data set: cell-based, human. The following applies: day 42 cells, CHIR 3 μM added to purmorphamine/FGF-2/RA. As for the experimental part:
Cells were analyzed using phase contrast microscopy, as described in Example 1 or immunohistochemistry. […] After washing, the cells were incubated with the corresponding secondary antibody: Alexa Fluor® 488 goat anti-Mouse IgG, Alexa Fluor® 488 or 594 goat anti-Rabbit IgG, or Alexa Fluor® 594 donkey anti-goat IgG (Life Technologies). The samples were stained with Hoechst 33342 and visualized under a fluorescent microscope (Olympus IX70, Melville, N.Y.). The images from five independent fields (800-1000 cells) were analyzed using ImageJ software. The proportion of positive cells was calculated based on the intensity of marker of interest normalized to the nuclear intensity, indicating the relative expression among different conditions. A neuronal model was prepared using LDN/SB induction, as discussed in Example 2. Neural patterning of hiPSCs was tuned through treatment with cyclopamine (the antagonist of SHH signaling) or purmorphamine (the agonist of SHH signaling) (Stanton & Peng, Small-molecule modulators of the Sonic Hedgehog signaling pathway, Mol Biosyst, 6 (2010) 44-54). […] After 8 days, the cells were treated with different growth factor combinations: […] (3) FGF-2 (10 ng/mL) and cyclopamine (1 μM, Sigma). […]

Data set [2] deals with hiPSC-derived neural cells. Description: NMDA-induced neurotoxicity (MTT, ROS, poly caspase). Type of data set: cell-based, human. As for the experimental part:
(§2) The hiPSC-derived neural cells were tested to determine response to different drugs and small molecules. Neural cells were formed as described in Example 2. After differentiation, the derived neural cells were replated onto Geltrex-coated 96-well plate and treated with N-methyl-D-aspartate (NMDA) at 0, 0.05, 0.5, 1 mM to mimic general neural toxicity. Cells were tested to determine response to neural protective molecules. Carbenoxolone (Cx, Sigma) (Beraki, et al., A pharmacological screening approach for discovery of neuroprotective compounds in ischemic stroke, PLoS One, 8 (2013) e69233) was added at different doses (0, 10 µM, 50 µM) of Cx were added with 0.5 mM NMDA for the first 24 h. Then samples were washed with phosphate buffer and the same doses of Cx were added for another 24 h. The cells were then characterized by MTT, reactive oxygen species (ROS), and poly caspase assays.
as §1

Data set [3] has as its system neuronal cells derived from hiPSK3 cells. In words: MMP-2/-9 inhibitor effects: neurite density, MTT, cell counting. The following applies: phase contrast, 1 μM. It is filed as cell-based, human. As for the experimental part: Derived neural cells, as described above, were replated onto Geltrex-coated 96-well plate and treated with MMP inhibitors: ARP 100 (MMP-2 inhibitor), MMP-9 inhibitor I, or SB-3CT (MMP-2 and MMP-9 inhibitor) (all from Santa Cruz) at 1 μM.
The cells were then characterized by MTT, reactive oxygen species (ROS), and poly caspase assays. For some experiments, cell numbers were counted using hemocytometer after trypsin/EDTA dissociation.
as §1, with “Image-iT™ Live Green Poly Caspase Detection kit (Molecular Probes) was used to detect the expression of caspases.” left out

In data set [4] the test system is hiPSC-derived neural cells. In words: Carbenoxolone neuroprotection from NMDA-induced neurotoxicity (MTT, ROS, poly caspase). Type of data set: cell-based, human. As for the experimental part:
as §2, §1

Take `Cc1c[nH]c(-c2cnc(NCCNc3ccc(C#N)cn3)nc2-c2ccc(Cl)cc2Cl)n1` [CHIR99021]: in data set [1], the ROS levels result is given as “reduced” and the caspase levels entry is “reduced”. Besides, in data set [1] (vs. groups without CH or with 1 μM CH), the “increase of MTT activity” value is reported as 25-45%. The “expression of ISL1 and HB9 (motor neuron differentiation)” value in the data set on hiPSK3-derived EBs is “increased”.
As for `CN[C@H](CC(=O)O)C(=O)O` [NMDA, N-methyl-D-aspartate], in data set [2] (NMDA 0-1 mM), the caspase activity entry was “logarithmic relationship with NMDA concentration” and the “expression of ROS” value is reported as “increased logarithmically”. Also, in data set [2] (NMDA 0.5 or 1 mM, all three groups (control, Purmo, Cyclo)), the “reduction of MTT activity” value is given as 30-50%.
Take `O=S(=O)(CC1CS1)c1ccc(Oc2ccccc2)cc1` (stereo not drawn) [SB-3CT]: the neurite density entry is recorded as “little changes” in data set [3] (Cyclo group (more cortical glutamatergic neurons)) and “reduction of neurite density” in data set [3] (Purmo group (more motor neurons)).
With `CC1(C)[C@@H](OC(=O)CCC(=O)O)CC[C@]2(C)[C@H]3C(=O)C=C4[C@@H]5C[C@@](C)(C(=O)O)CC[C@]5(C)CC[C@@]4(C)[C@]3(C)CC[C@@H]12` [carbenoxolone, Carbenoxolone], in data set [4] (carbenoxolone 10 or 50 μM with 0.5 mM NMDA), the “increase in MTT activity” value was 28-56%. Besides, in data set [4] (carbenoxolone with 0.5 mM NMDA), the “expression of ROS” value was “reduced expression of ROS”. For the same compound, the caspase activity entry in data set [4] (carbenoxolone with 0.5 mM NMDA, all three groups) is given as “decreased”.

These data come from patent publication US10323229B1, “Three-dimensional human stem cell-derived cortical spheroid model” (The Florida State University Research Foundation, Inc., priority 2015, dated 2019).
